1 compound from patent publication US8980569B2, “Chronic lymphocytic leukemia prognosis and treatment” (Duke University, priority 2007, dated 2015) can be followed below.

This series relates to CLL cells. The conditions noted are these: freshly isolated CLL cells.

Turning to `COc1cc2c(cc1O)CC[C@@H]1[C@@H]2CC[C@]2(C)[C@@H](O)CC[C@@H]12` [2-ME, 2-methoxyestradiol], for the setting “at 10 μM, 72 hours”, the percent cytotoxicity was 71%. Moreover, the EC50 (read-out: effective dose for 50% killing (ED50), incubated 72 hours) worked out at 7.5 µM.
